# Experimental data as given in patent US11427606B2, “Azithromycin derivatives containing a phosphonium ion as anticancer agents” (Rising Tide Foundation, priority 2017, dated 2022).
# Tested on: MDA-231 cancer cells
# Assay: Inhibition of proliferation assay: cell confluence (IncuCyte imaging)
# Type: cell-based
# Settings: compound at 10 uM; MDA-231 cells; IncuCyte images every 3 h over 4-5 d; relative confluence normalised to time zero
# Excerpt: Inhibition of Proliferation Assay
# The confluence value is a surrogate for cell proliferation and growth. The value is expressed as a percent confluence, which represents the fraction of culture dish-surface that is occupied by cells. As the number of cells in the dish increases over time due to proliferation, so will their coverage of that surface increase. Expansion of the cell population on the cell culture-dish surface and confluence have mostly a linear relationship until the cells on the plate surface begin to reach saturation or maximum density.
# Confluence is determined based on image analysis. Image based software can identify objects in the image field base on changes to pixel density in a grey scale image. The software can then assign a mask to those pixels within the object. Objects can be ‘gated’ out based on size and shape. To determine cell confluence, images of cells are first masked as objects. The surface area of the image that is masked is measured and compared to the total surface area of the culture dish surface to obtain a percent confluence.
# MDA-231 cancer cells were obtained from ATCC. Cells were cultured in Dulbecco's Modified Eagle Medium (DMEM) supplemented with 10% Fetal Bovine Serum (FBS), 2 mM Glutamax, 1 mM Non Essential Amino Acid (NEAA) solution and 1 mM sodium pyruvate. […] Final DMSO concentrations were […]. Images were acquired with an IncuCyte Live Cell Imaging microscopy (Essen Bioscience) at every 3 h under cell culture conditions with 10× objective over 4-5 d. Cell confluence was calculated from one field of view per well using the IncuCyte in-built algorithm. Relative confluence values were obtained by normalising each value to the time zero value in each sample.
row,Structure (SMILES),% Confluence [%]
1,"CC[C@H]1OC(=O)[C@H](C)[C@@H](O[C@H]2C[C@@](C)(OC)[C@@H](O)[C@H](C)O2)[C@H](C)[C@@H](O[C@@H]2O[C@H](C)C[C@H](N(C)C)[C@H]2O)[C@](C)(O)C[C@@H](C)CN(C(=O)CCCCCCCCCCC[P+](C)(c2ccccc2)c2ccccc2)[C@H](C)[C@@H](O)[C@]1(C)O.[Cl-] [Example 22, {12-[(2R,3S,4R,5R,8R,10R,11R,12S,13S,14R)-11-{[(2S,3R,4S,6R)-4-(dimethylamino)-3-hydroxy-6-methyloxan-2-yl]oxy}-2-ethyl-3,4,10-trihydroxy-13-{[(2R,4R,5S,6S)-5-hydroxy-4-methoxy-4,6-dimethyloxan-2-yl]oxy}-3,5,8,10,12,14-hexamethyl-15-oxo-1-oxa-6-azacyclopentadecan-6-yl]-12-oxododecyl}(methyl)diphenylphosphonium chloride]",137
2,"CC[C@H]1OC(=O)[C@H](C)[C@@H](O[C@H]2C[C@@](C)(OC)[C@@H](O)[C@H](C)O2)[C@H](C)[C@@H](O[C@@H]2O[C@H](C)C[C@H](N(C)C)[C@H]2O)[C@](C)(O)C[C@@H](C)CN(C(=O)CCCCCCC[P+](C)(C)C)[C@H](C)[C@@H](O)[C@]1(C)O.[Cl-] [Example 25, {8-[(2R,3S,4R,5R,8R,10R,11R,12S,13S,14R)-11-{[(2S,3R,4S,6R)-4-(dimethylamino)-3-hydroxy-6-methyloxan-2-yl]oxy}-2-ethyl-3,4,10-trihydroxy-13-{[(2R,4R,5S,6S)-5-hydroxy-4-methoxy-4,6-dimethyloxan-2-yl]oxy}-3,5,8,10,12,14-hexamethyl-15-oxo-1-oxa-6-azacyclopentadecan-6-yl]-8-oxooctyl}trimethylphosphonium chloride]",124
3,CC[C@H]1OC(=O)[C@H](C)[C@@H](O)[C@H](C)[C@@H](O[C@@H]2O[C@H](C)C[C@H](N(C)C)[C@H]2O)[C@](C)(O)C[C@@H](C)CN(CCCCCCCC[P+](c2ccccc2)(c2ccccc2)c2ccc(N(C)C)cc2)[C@H](C)[C@@H](O)[C@]1(C)O.[I-] [Example 21],89.9
4,"CC[C@H]1OC(=O)[C@H](C)[C@@H](O[C@H]2C[C@@](C)(OC)[C@@H](O)[C@H](C)O2)[C@H](C)[C@@H](O[C@@H]2O[C@H](C)C[C@H](N(C)C)[C@H]2O)[C@](C)(O)C[C@@H](C)CN(C(=O)CCCCCCCCCCC[PH](c2cccc(C)c2)(c2cccc(C)c2)c2cccc(C)c2)[C@H](C)[C@@H](O)[C@]1(C)O [Example 30, {12-[(2R,3S,4R,5R,8R,10R,11R,12S,13S,14R)-11-{[(2S,3R,4S,6R)-4-(dimethylamino)-3-hydroxy-6-methyloxan-2-yl]oxy}-2-ethyl-3,4,10-trihydroxy-13-{[(2R,4R,5S,6S)-5-hydroxy-4-methoxy-4,6-dimethyloxan-2-yl]oxy}-3,5,8,10,12,14-hexamethyl-15-oxo-1-oxa-6-azacyclopentadecan-6-yl]-12-oxododecyl}tris(3-methylphenyl)phosphonium chloride]",4.4
5,"CC[C@H]1OC(=O)[C@H](C)[C@@H](O[C@H]2C[C@@](C)(OC)[C@@H](O)[C@H](C)O2)[C@H](C)[C@@H](O[C@@H]2O[C@H](C)C[C@H](N(C)C)[C@H]2O)[C@](C)(O)C[C@@H](C)CN(C(=O)CCCCCCC[P+](c2ccccc2)(c2ccccc2)c2ccc(N(C)C)cc2)[C@H](C)[C@@H](O)[C@]1(C)O [Example 19, {8-[(2R,3S,4R,5R,8R,10R,11R,12S,13S,14R)-11-{[(2S,3R,4S,6R)-4-(dimethylamino)-3-hydroxy-6-methyloxan-2-yl]oxy}-2-ethyl-3,4,10-trihydroxy-13-{[(2R,4R,5S,6S)-5-hydroxy-4-methoxy-4,6-dimethyloxan-2-yl]oxy}-3,5,8,10,12,14-hexamethyl-15-oxo-1-oxa-6-azacyclopentadecan-6-yl]-8-oxooctyl}[4-(dimethylamino)phenyl]diphenylphosphonium hexafluorophosphate(V)]",10.5
